Results from paper PMC7893776, “Selecting an anti-malarial clinical candidate from two potent dihydroisoquinolones” (Malaria Journal, 2021).
“And” between values parts separate entries of the source, which are not always exact repeats. Equal entries are not always repeated. Where two headings read alike, the source gives them in different places.

Tests used:
[1] = Microsomal stability, dog; type: in vitro ADME; details: for CLint in vivo: scaled up using PBSF
Protocol: The metabolic stability assay was performed by incubating compounds individually (0.8, 4, or 20 µM) with mouse, rat, dog and human liver microsomes (Fisher, 0.5 mg/mL protein concentration) at 37 °C. The metabolic reaction was initiated by the addition of a NADPH-regenerating system and quenched at various time points by the addition of acetonitrile according to a published method.
The remaining concentration of each compound was measured as a ratio of peak area to the internal standard. The log peak area ratio was plotted vs. time (h), and the slope was determined to calculate the elimination rate constant [k = (− 2.303) * slope]. If deviation from first order kinetics was evident, only the initial linear portion of the plot was used to determine the rate constate, k. The half-life (h) was calculated as t1/2 = 0.693/k. Intrinsic clearance in vitro was calculated as CLintin vitro = (1000)*(0.693/t1/2*60)/0.5, where microsomal concentration in the reaction solution was 0.5 mg/mL; 1000 and 60 are scaling factors for volume (µL) and time (min), respectively. The intrinsic in vitro clearance was scaled to the intrinsic in vivo clearance using physiology based scaling factor (PBSF): CLint in vivo= CLint in vitro *PBSF: (microsome protein/gram liver) * (gram liver/kg b.w.), with PBSF: 47 (mouse), 47(rat), 58 (dog), 32 (human); and liver weight proportions: 54.9 (mouse), 36.6 (rat), 32.9 (dog) 25.7 (human).

[2] = Dog pharmacokinetics, single PO or IV dose; type: in vivo, male beagle dogs; details: for bioavailability: read-out: Dog F (oral bioavailability)
Text: Studies were undertaken to determine the plasma pharmacokinetics of SJ733 and SJ311. These studies included: (i) single oral gavage (PO) or intravenous (IV) dose administration to female C57BL/6 mice; (ii) single PO or IV dose administration to male Sprague Dawley (SD) rats; (iii) single PO or IV dose administration to male beagle dogs; (iv) toxicokinetic (TK) study following single PO administration to male SD rats. The PO and IV formulation used for mouse studies at SJCRH was 1% hydroxypropyl-beta-cyclodextrin (w/v), 10% ethanol (v/v), 10% propylene glycol (v/v), 40% PEG-400 (v/v) and 39% PBS (pH 7.4) isotonic (v/v). Compounds were dosed orally as suspensions, and intravenously as filtered solutions. Compound concentrations were confirmed post filtration using UV spectroscopy. The IV formulation used for rat studies (Monash University) was the same as that used for mice. For PO dosing to rats (Monash University) at 2 mg/kg, a suspension formulation was used containing 0.5% (w/v) hydroxypropyl methylcellulose, 0.5% (v/v) benzyl alcohol and 0.4% (v/v) Tween 80. The formulation used for rat studies at SRI (PO, high dose) was the same as that used in mouse PK studies. The formulation for the high dose TK study at SRI was 0.5% methylcellulose in sterile water. The formulation used for dog studies was the same as that used in mouse PK studies. The plasma PK of SJ733 and SJ311 following a single PO gavage or IV dose (via saphenous vein) to male beagle dogs was determined at an IV dose of 3 mg/kg and PO doses of 3 and 30 mg/kg (n = 3 for each). Briefly, this PK study was carried out in three sessions with one week washout period in between to allow for complete clearance of compounds. In the first session, 6 male dogs were administered a single 3 mg/kg IV dose of SJ311 or SJ733. In the subsequent second and third sessions, the same 6 male dogs were given a single 3 mg/kg or 30 mg/kg PO dose of SJ311 or SJ733, respectively. Plasma (0 -72 h) and urine (0–48 h) samples were collected for further analysis of SJ311 or SJ733 concentrations. Dog plasma was extracted utilizing protein precipitation with a twofold volume ratio of acetonitrile, while urine samples were extracted utilizing liquid–liquid extraction with ethyl acetate. SJ733, SJ311, and verapamil (IS) were quantitated by LC–MS/MS as described above. Plasma concentration time (Ct) data for SJ733 and SJ311 were grouped by nominal time point, and the mean Ct values were subjected to noncompartmental analysis (NCA) using Phoenix WinNonlin 8.1 (Certara USA, Inc., Princeton, NJ). For all experiments, the area under the Ct and first moment curves (AUC, AUMC) were estimated using the “linear up log down” method. The terminal phase was defined as at least three time points at the end of the Ct profile, and the elimination rate constant (Kel) was estimated using an unweighted log-linear regression of the terminal phase. The terminal elimination half-life (T1/2) was estimated as 0.693/Kel, and the AUC from time 0 to infinity ([…]) was estimated as the AUC to the last time point (AUClast) + Clast (predicted)/Kel with the […] similarly calculated. Additional parameters estimated included observed maximum concentration (Cmax), time of Cmax (Tmax), concentration at the last observed time point (Clast), time of Clast (Tlast), and the apparent oral terminal volume of distribution (V/F). The apparent oral clearance (CL/F), systemic clearance (CL) and volume of distribution at steady state (Vss) were all estimated using standard formulae [19].

CYP2C9 = biological target: T1, CYP2C9 (Homo sapiens, UniProt P11712); experiment: CYP450 inhibition, CYP2C9; type: in vitro ADME; details: for inhibition of CYP2C9: 10 µM, probe substrate Diclofenac, replicate measurements
T1 construct: purchased Cypex Ltd (Bactosomes)
Protocol: SJ733 was first pre-incubated with Bactosomes™ (Cypex Ltd, final P450 concentration: CYP1A1 25 pmol/mL, CYP1A2 100 pmol/mL,CYP1B1 100 pmol/mL, CYP2B6 100 pmol/mL, CYP2C8 50 pmol/mL, CYP2C9, 25 pmol/mL, CYP2C19 100 pmol/mL, CYP2D6 50 pmol/mL and CYP3A4 25 pmol/mL, 0.1 M phosphate buffer pH 7.4) at 37 °C prior to the addition of NADPH (final concentration 1 mM) to initiate the reaction with a final incubation volume of 50 μL. Incubations were also performed using control Bactosomes™ (no P450 enzymes present) to reveal any non-enzymatic degradation. Control compounds known to be metabolized specifically by each P450 isoform were included individually. Test articles and controls were incubated with each isoform for 0, 5, 15, 30, and 45 min. The reactions were stopped by transferring 20 μL of the reaction mixture to 60 μL methanol at the appropriate timepoints.
In an alternate approach SJ311 was studied using a validated cocktail probe substrate method. […] All samples were analyzed using LC MS/MS, with either positive atmospheric pressure chemical ionization (APCI) mode (SJ311) or ESI (SJ733) mode utilizing multiple reaction monitoring (MRM) scans.

[3] = dog microsomes, 0.8 µM, independent replicate to Table 4
[4] = dog microsomes, 4 µM, independent replicate to Table 4
[5] = dog microsomes, 20 µM, independent replicate to Table 4
[6] = male, beagle, plasma, po, dosed orally, read-out: Tmax
[7] = male, beagle, plasma, po, summary over the oral doses studied

T1 sequence (P11712 whole entry): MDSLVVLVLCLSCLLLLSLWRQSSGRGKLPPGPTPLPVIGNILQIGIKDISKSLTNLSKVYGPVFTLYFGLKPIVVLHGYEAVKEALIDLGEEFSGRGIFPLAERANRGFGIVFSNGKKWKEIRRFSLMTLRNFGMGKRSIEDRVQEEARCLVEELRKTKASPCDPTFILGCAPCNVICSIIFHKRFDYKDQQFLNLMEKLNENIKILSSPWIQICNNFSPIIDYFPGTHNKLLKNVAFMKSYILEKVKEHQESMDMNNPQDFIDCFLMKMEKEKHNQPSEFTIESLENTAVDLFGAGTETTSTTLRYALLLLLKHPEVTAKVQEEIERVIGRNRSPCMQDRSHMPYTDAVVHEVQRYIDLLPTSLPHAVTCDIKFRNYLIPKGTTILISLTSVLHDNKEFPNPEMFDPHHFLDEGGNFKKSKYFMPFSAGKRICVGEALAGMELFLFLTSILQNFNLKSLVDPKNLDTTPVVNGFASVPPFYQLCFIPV

| Structure (SMILES) | CLint ([1]; dog microsomes, 0.8 µM) [µl/min/mg protein] | t1/2 ([1]; dog microsomes, 0.8 µM) [h] | CLint in vitro [1, 3] [µl/min/mg protein] | CLint in vivo ([1]; dog microsomes, 0.8 µM) [mL/min/kg] | CLint in vitro [1, 4] [µl/min/mg protein] | CLint in vivo ([1]; dog microsomes, 4 µM) [mL/min/kg] | CLint in vitro [1, 5] [µl/min/mg protein] | CLint in vivo ([1]; dog microsomes, 20 µM) [mL/min/kg] | AUCinf ([2]; single IV 3 mg/kg) [µM·h] | CL ([2]; single IV 3 mg/kg) [mL/min/kg] | Dose in urine ([2]; single IV 3 mg/kg) [%] | Half life ([2]; single IV 3 mg/kg) [h] | Vss ([2]; single IV 3 mg/kg) [L/kg] | AUCinf ([2]; single PO 3 mg/kg) [µM·h] | CL ([2]; single PO 3 mg/kg) [mL/min/kg] | Cmax ([2]; single PO 3 mg/kg) [µM] | Dose in urine ([2]; single PO 3 mg/kg) [%] | F% ([2]; single PO 3 mg/kg) [%] | Half life ([2]; single PO 3 mg/kg) [h] | Tmax ([2]; single PO 3 mg/kg) [h] | further results |
| --- | --- | --- | --- | --- | --- | --- | --- | --- | --- | --- | --- | --- | --- | --- | --- | --- | --- | --- | --- | --- | --- |
| N#Cc1cc(NC(=O)[C@H]2c3ccccc3C(=O)N(CC(F)(F)F)[C@@H]2c2cccnc2)ccc1F [(+)-SJ733] | < 7 | > 4 | <7 | <8.3 | <7 | <8.3 | <7 | <8.3 | 33.1 ± 10.0 | 3.4 ± 0.9 | 1.9 ± 0.3 | 9.6 ± 4.7 | 2.8 ± 1.8 | 40.6 ± 12.9 | 2.82 ± 0.917 | 3 ± 0.7 | 2.8 ± 0.2 | 115 ± 29 | 11.4 ± 5.0 | 0.83 | V ([2]; single PO 3 mg/kg): 2.6 ± 0.8 L/kg; AUCinf ([2]; single PO 30 mg/kg): 243 ± 52.9 µM·h; CL ([2]; single PO 30 mg/kg): 4.57 ± 1.12 mL/min/kg; Cmax ([2]; single PO 30 mg/kg): 25.6 ± 2.1 µM; Dose in urine ([2]; single PO 30 mg/kg): 3.1 ± 1.9%; F% ([2]; single PO 30 mg/kg): 73.7 ± 16.1%; Half life ([2]; single PO 30 mg/kg): 5.3 ± 0.7 h; Tmax ([2]; single PO 30 mg/kg): 1.67 h; V ([2]; single PO 30 mg/kg): 2.1 ± 0.8 L/kg |
| N#Cc1cc(NC(=O)C2c3ccccc3C(=O)N(CC(F)(F)F)C2c2cccnc2)ccc1F (racemic) [(r)-SJ733] |  |  | <7 | <8.3 | <7 | <8.3 | <7 | <8.3 |  |  |  |  |  |  |  |  |  |  |  |  | inhibition of CYP2C9 (CYP2C9): 34% and 17% |
| N#Cc1cc(NC(=O)C2c3ccccc3C(=O)N(CC(F)(F)F)C2c2cn[nH]c2)ccc1F (racemic) [(r)-SJ311] |  |  |  |  |  |  |  |  |  |  |  |  |  |  |  |  |  |  |  |  | inhibition of CYP2C9 (CYP2C9): 19% and 15%; CLint in vitro ([1]; dog microsomes, 20, 4, 0.8 µM): <7 µl/min/mg protein; CLint in vivo ([1]; dog microsomes, 20, 4, 0.8 µM): <8.3 mL/min/kg |
| N#Cc1cc(NC(=O)[C@H]2c3ccccc3C(=O)N(CC(F)(F)F)[C@@H]2c2cn[nH]c2)ccc1F [SJ311] |  |  |  |  |  |  |  |  |  |  |  |  |  |  |  |  |  |  |  |  | CYP2C9 inhibition, in words (CYP2C9): weak inhibitors; Tmax [2, 6]: 3 h; bioavailability [2, 7]: 74 to 78%; % dose recovered in dog urine ([2]; regardless of route, mean): 32-34% |
| N#Cc1cc(NC(=O)[C@H]2c3ccccc3C(=O)N(CC(F)(F)F)[C@@H]2c2cn[nH]c2)ccc1F [(+)-SJ311] | < 7 | > 4 |  |  |  |  |  |  | 77.0 ± 12.4 | 1.42 ± 0.217 | 32.3 ± 21.3 | 7.8 ± 2.2 | 0.96 ± 0.27 | 56.2 ± 12.1 | 2.02 ± 0.5 | 4 ± 0.8 | 34.7 ± 15.9 | 73.0 ± 15.8 | 6.1 ± 0.6 | 3.3 ± 1.2 | V ([2]; single PO 3 mg/kg): 1.1 ± 0.4 L/kg; AUCinf ([2]; single PO 30 mg/kg): 601 ± 137 µM·h; CL ([2]; single PO 30 mg/kg): 1.88 ± 0.417 mL/min/kg; Cmax ([2]; single PO 30 mg/kg): 35 ± 5.1 µM; Dose in urine ([2]; single PO 30 mg/kg): 33.4%; F% ([2]; single PO 30 mg/kg): 77.9 ± 17.7%; Half life ([2]; single PO 30 mg/kg): 6.7 ± 1.4 h; Tmax ([2]; single PO 30 mg/kg): 3.0 ± 1.7 h; V ([2]; single PO 30 mg/kg): 1.1 ± 0.4 L/kg |
| N#Cc1cc(NC(=O)[C@H]2c3ccccc3C(=O)N(CC(F)(F)F)[C@@H]2c2cccnc2)ccc1F (racemic) [SJ733] |  |  |  |  |  |  |  |  |  |  |  |  |  |  |  |  |  |  |  |  | CYP2C9 inhibition, in words (CYP2C9): weak inhibitors; Tmax [2, 6]: 1 h; bioavailability [2, 7]: 60 to 100%; Dog F (oral bioavailability) ([2]; summary over the oral doses studied): 74-115% |
